These are literature values, as cited in US20250082651A1, “GANAXOLONE FOR USE IN TREATING GENETIC EPILEPTIC DISORDERS” (Marinus Pharmaceuticals, Inc., priority 2017, published 2025).

Data set [1] deals with patients with CDKL5-related epilepsy. As to conditions: CDKL5 deficiency disorder patients; cited from earlier work.
For data set [2] the following is noted: human plasma; cited from earlier work.

The structures appear in SMILES notation.

As for `CCCC(CCC)C(=O)O` [valproic acid], in data set [1], the “Responder rate at 12 months” value was 9%.
`CC(=O)[C@H]1CC[C@H]2[C@@H]3CC[C@H]4C[C@H](O)CC[C@]4(C)[C@H]3CC[C@]12C` [Allopregnanolone, 3α,5α-tetrahydroprogesterone, reference compound]: the Half-life entry in data set [2] was “about 45 minutes”.
